# Laboratory results as given in US20260250318A1, “COMPOSITIONS AND METHODS FOR CROSSING THE BLOOD BRAIN BARRIER” (VOYAGER THERAPEUTICS, INC., priority 2022, published 2026).
# Test system: brain
# Assay: Maturation of TTM-001 capsid, NGS enrichment in brain of CD-1 Outbred mice
# Format: in vivo
# Settings: NGS fold-enrichment of TTM-001 matured AAV capsid variants in the brain of CD-1 Outbred mice; intravenous 1.0×10^12 VG/dose; 14 days in life; RNA; relative to non-matured TTM-001 control
# Summary of the method: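 Brain enrichment read by NGS after RNA extraction and RT-PCR, expressed as fold ratio over the matching parental capsid (TTM-001 or TTM-002). Libraries, mutated around loop IV positions 449/450–466, were injected intravenously (tail vein, 1.0×10^12 VG/dose) into three female CD-1 mice; brains harvested at 14 days.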
row,Sequence,Fold enrichment over TTM-001 [fold]
1,KTINGSGSPHSKVKPQQT,2.778
2,KTINGSGSPHSKVPKQQT,2.924
3,KTINGSGSPHSKVRAQQT,2.412
4,KTINGSGSPHSKVRVQQT,2.034
5,KTINGSGSPHSKVSRQQT,2.108
6,KTINGSGSPHSKVTRQQT,2.397
7,KTINGSGSPHSKWLLQQT,4.521
8,KTINGSGSPHSKWLVQQT,2.333
9,KTINGSGSPHSKWPGQQT,2.477
10,KTINGSGSPHSKWSLQQT,2.453
11,KTINGSGSPHSKWTLQQT,2.039
12,KTINGSGSPHSKWVSQQT,2.089
13,KTINGSGSPHSKYPSQQT,3.114
14,KTINGSGSPHSLCQNQQT,2.285
15,KTINGSGSPHSLCSNQQT,3.413
16,KTINGSGSPHSLFANQQT,2.365
17,KTINGSGSPHSLFLNQQT,3.358
18,KTINGSGSPHSLFPNQQT,2.106
19,KTINGSGSPHSLFRNQQT,4.037
20,KTINGSGSPHSLLCNQQT,3.644
21,KTINGSGSPHSLLWNQQT,7.983
22,KTINGSGSPHSLLYNQQT,2.158

row,Sequence,Fold enrichment over TTM-001 [fold]
1,KTINGSGSPHSLRFNQQT,4.765
2,KTINGSGSPHSLRHNQQT,2.980
3,KTINGSGSPHSLRRNQQT,4.985
4,KTINGSGSPHSLRSNQQT,2.778
5,KTINGSGSPHSLRYNQQT,2.462
6,KTINGSGSPHSLSCNQQT,2.605
7,KTINGSGSPHSLSWNQQT,2.588
8,KTINGSGSPHSLTWNQQT,2.698
9,KTINGSGSPHSLVFNQQT,2.019
10,KTINGSGSPHSLWLNQQT,4.412
11,KTINGSGSPHSLWQNQQT,2.037
12,KTINGSGSPHSLWSNQQT,4.467
13,KTINGSGSPHSLYLNQQT,3.264
14,KTINGSGSPHSMFPNQQT,2.419
15,KTINGSGSPHSMLYNQQT,2.808
16,KTINGSGSPHSMYLNQQT,2.000
17,KTINGSGSPHSPLWNQQT,2.562
18,KTINGSGSPHSRGRNQQT,4.961
19,KTINGSGSPHSRKLNQQT,3.646
20,KTINGSGSPHSRKQNQQT,2.162
21,KTINGSGSPHSRLFNQQT,2.542
22,KTINGSGSPHSRLKNQQT,3.156

row,Sequence,Fold enrichment over TTM-001 [fold]
1,KTINGSGSPHSRLRNQQT,3.851
2,KTINGSGSPHSRPRNQQT,2.164
3,KTINGSGSPHSRRLNQQT,3.251
4,KTINGSGSPHSRRQNQQT,2.166
5,KTINGSGSPHSRRSNQQT,2.851
6,KTINGSGSPHSRRVNQQT,2.676
7,KTINGSGSPHSRSRNQQT,3.784
8,KTINGSGSPHSRTRNQQT,2.912
9,KTINGSGSPHSRTYNQQT,2.009
10,KTINGSGSPHSRVRNQQT,2.540
11,KTINGSGSPHSRWQNQQT,3.372
12,KTINGSGSPHSRYSNQQT,2.536
13,KTINGSGSPHSSCLNQQT,2.471
14,KTINGSGSPHSSCQNQQT,2.365
15,KTINGSGSPHSSKRNQQT,2.978
16,KTINGSGSPHSSLCNQQT,2.592
17,KTINGSGSPHSSLWNQQT,3.179
18,KTINGSGSPHSSRKNQQT,2.585
19,KTINGSGSPHSSRRNQQT,4.920
20,KTINGSGSPHSSWANQQT,2.264
21,KTINGSGSPHSTRLNQQT,2.860
22,KTINGSGSPHSTRPNQQT,2.598

row,Sequence,Fold enrichment over TTM-001 [fold]
1,KTINGSGSPHSTRQNQQT,2.212
2,KTINGSGSPHSTVWNQQT,2.196
3,KTINGSGSPHSTWLNQQT,3.583
4,KTINGSGSPHSTWTNQQT,2.307
5,KTINGSGSPHSVFLNQQT,2.069
6,KTINGSGSPHSVLFNQQT,2.194
7,KTINGSGSPHSVSWNQQT,2.223
8,KTINGSGSPHSVYLNQQT,4.426
9,KTINGSGSPHSVYRNQQT,2.432
10,KTINGSGSPHSWGSNQQT,2.473
11,KTINGSGSPHSWLQNQQT,2.665
12,KTINGSGSPHSWLSNQQT,3.495
13,KTINGSGSPHSWSLNQQT,2.523
14,KTINGSGSPHSWTQNQQT,2.084
15,KTINGSGSPHSYLINQQT,2.650
16,KTINGSGSPHSYLLNQQT,2.147
17,KTINGSGSPHSYLRNQQT,4.566
18,KTINGSGSPHSYRPNQQT,3.095
19,KTINGSGSPHSYSRNQQT,2.196
20,KTINGSGSPHSYVRNQQT,2.339
21,KTINGSGSPHTKWQNQQT,2.222
22,KTINGSGSPHTLFQNQQT,2.136

row,Sequence,Fold enrichment over TTM-001 [fold]
1,KTINGSGSPHTLWQNQQT,2.168
2,KTINGSGSPHTLYQNQQT,3.117
3,KTINGSGSPHTRRQNQQT,3.350
4,KTINGSGSPHTWLQNQQT,2.397
5,KTINGSGSPHTWSQNQQT,2.011
6,KTINGSGSPHTWTQNQQT,2.045
7,KTINGSGSPHVLFQNQQT,2.203
8,KTINGSGSPHVLWQNQQT,4.533
9,KTINGSGSPHVRRQNQQT,4.114
10,KTINGSGSPHVTWQNQQT,2.281
11,KTINGSGSPHWLAQNQQT,3.192
12,KTINGSGSPHWSLQNQQT,2.389
13,KTINGSGSPHWSVQNQQT,2.138
14,KTINGSGSPHWVSQNQQT,2.007
15,KTINGSGSPHYLLQNQQT,2.011
16,KTINGSGSPHYLVQNQQT,3.819
17,KTINGSGTPHSKAQNQQT,2.259
18,KTINGSHSPHRKAQNQQT,2.028
